What all share (assay type): physicochemical
Data set [1] can be described thus: LC–MS check for chemical modification at high pH. To be noted: 50 mM NaOH.
Data set [2] can be described thus: SEC-MALS purification and analysis on Superdex 75. As to the method:
To perform a further test for the presence of seeds, and determine whether the detected oligomers affected the self-assembly kinetics, Aβ(1-42) samples were purified by SEC, and their self-assembly kinetics were compared to those of unpurified samples. In summary, following the protocol used by Hellstrand et al.,[39] […] The fraction eluting from 13.6 to 14.6 min (at 1 mL/min) was collected on ice, diluted variably (60, 80, or 100%, i.e., undiluted) in the elution buffer to give a range of concentrations, supplemented with ThT from a concentrated stock, and used in ThT assays. This purification procedure was repeated several times with reproducible results, and a representative elugram is shown in Figure 6a. The UV absorbance and RI elugrams are very similar to those previously reported for in-house recombinant peptide purified according to the same protocol,[39] and the peak at ∼14 min has already been identified as the monomer. MALS analysis of the ROI from 13.6 to 14.6 min was challenging, as the very weak scattering signal meant that the Mw estimates were particularly sensitive to baseline subtraction errors. Nonetheless, the average Mw value of this ROI across three concordant replicates was 6460 ± 712 Da, where the error margins represent one standard deviation, consistent with the peak containing mostly monomer with a small but significant amount of contaminating oligomer. […] Samples were analyzed and purified in small batches using an analytical Superdex 75 column (GE Healthcare) equilibrated in 20 mM sodium phosphate buffer (pH 8) with 200 μM EDTA and 1 mM NaN3. The column was run with the TIP pump from the AF4 system (Postnova Analytics, Landsberg am Lech, Germany), and in-line UV (280 nm; Shimadzu, U.K.), MALS (Postnova Analytics, Landsberg am Lech, Germany), and RI (Postnova Analytics, Landsberg am Lech, Germany) detectors. The RI detector was purged following equilibration, and the UV and RI detectors were then zeroed. The sample was injected, with an injection volume of 50 μL, and run at 1.0 mL/min for 35 min. Between sample runs, blanks consisting of the same solvent without the Aβ(1-42) were loaded to check that the column was clean and to allow blank subtraction of the detector signals. Data processing and estimation of sample concentration, molecular weight, and recovery were carried out in the AF2000 Control software (Postnova Analytics, Landsberg am Lech, Germany), with final data processing in GraphPad Prism version 8.3.0. For preparative runs, the sample was collected at the end. […] Eluted Aβ was mixed and split into three aliquots; these were then diluted to 60, 80, or 100% (i.e., undiluted) their concentration in the same elution buffer and supplemented with 20 μM ThT from a 2 mM stock, as described in Hellstrand et al.[39] […]
Background: In gel filtration, larger molecules generally elute earlier.

The nature of data set [3]: Global fitting of ThT self-assembly curves to nucleated polymerization models. The conditions noted are these: global fit. From the text:
To test whether an equivalent analysis favored
106 four models to ﬁt the experimental data. Each model was globally ﬁtted, with all kinetic 107 parameters shared across initial monomer concentrations.
Firstly, we tested the Oosawa model (19). In this model, ﬁbrils form by primary nucle-ation, which behaves as annthc -order multimerization process. Fibrils then grow by stepwise addition of monomers to the ﬁbril end, which behaves as a second-order association between a ﬁbril and a free monomer. This model admits the exact solution (13, 20) […]
m(0) = 1−sech2/nc 2 λt , (S2)
109 Here, kn is the rate parameter for primary nucleation and k+ is the rate parameter for 110 elongation. As shown in Figure S8(a), the Oosawa model results in a poor ﬁt. Speciﬁcally, 111 the lack of a secondary process means the model cannot produce exponential early-time 112 scaling, and lacks a pronounced lag phase. This […] our observation of exponential 113 early-time kinetics, and the ﬁndings of previous work (16).
Next, we tested models that included a secondary process. Three such processes were considered: fragmentation (13, 14, 21), single-step secondary nucleation (14), and saturable multi-stepsecondarynucleation(17,18). Inallthreecases, theapproximatesolutionhasthe same mathematical form, and the models diﬀer only in the deﬁnitions of certain parameters.
The general equation is (13, 14, 21)
M(t) B− +C+eκt κ˜k∞e−k∞t, (S4) m(0) = 1− B+ +C+eκt B− +C+
Here, λ has the same deﬁnition as Eq. (S3), andκ and k∞ have model-speciﬁc deﬁnitions.
Since fragmentation can be treated as a special case of secondary nucleation (14, 16), we begin with the deﬁnitions for single-step secondary nucleation, […]
114 where k2 is the (n2 + 1)th-order rate constant for formation of a secondary ﬁbril nucleus 115 of eﬀective sizen2, at a rate also proportional to the concentration of monomers already 116 incorporated into ﬁbrils (14).
The correct solution for fragmentation can be obtained by taking the limit n2→ 0 (in practice, setting n2 = 10−3) and substituting (13, 14, 21)
117 wherekf is the rate constant for fragmentation at each possible break point along the length 118 of the ﬁbril. When ﬁtting the fragmentation-dominated model, the value ofkf was con-119 strained such thatkfk+ =knk+× (10−5.5 M)nc/(10−8 M), a constraint that was also applied 120 in (16). This ensures that fragmentation becomes dominant when the ﬁbril mass concen-121 tration M(t)≈ 10 nM for a reaction with initial monomer concentration m(0) =√10 µM, 122 forcing the ﬁtting algorithm to maintain an appreciable level of fragmentation. Without 123 this constraint, kf is simply minimized in order to attain a high concentration-dependence, […]
124 resulting in a ﬁt very similar to that obtained for the Oosawa model (16). […]
used with the modiﬁed deﬁnitions
A(t) =− λ2nc− 2k2k+K2m(0)log [K2 +m(t)n2]n2
125 where K2 is the eﬀective Michaelis constant for secondary nucleation, and2F1 is a hyper-126 geometric function. Note that, unlike traditional Michaelis-Menten kinetics, the rate of 127 saturable secondary nucleation has an nth2 -order rather than a linear dependence on m(t) in 128 the low concentration limit (15, 17, 18).
129 As shown in Figure S8(b), fragmentation succeeds in producing exponential early-time 130 scaling and a pronounced lag phase, but also results in a weak concentration-dependence 131 and an overly sharp approach to the maximum ﬂuorescence intensity. The latter two issues 132 are caused by the insensitivity of fragmentation to depletion of the free monomer, and 133 also lead to a high ﬁtted reaction order of primary nucleation (nc = 5.23), an attempt to 134 compensate for the weak concentration scaling of the secondary process. Had the value 135 of kf been left unconstrained, the ﬁt would instead have done this by minimising the role 136 of the concentration-insensitive secondary pathway, producing a ﬁt similar to Figure S8(a).
138 better ﬁt, as it is able to simultaneously produce exponential early-time scaling, the correct […]

On to “Aβ(1-42): Ultrapure recombinant Aβ(1-42) purchased from rPeptide, lyophilized from HFIP; disordered amyloid-forming peptide”, for which, in data set [1], the “difference between mass spectra of samples sonicated for 5 and 30 min” value was “no obvious difference”. In data set [2] (50 mM NaOH sample, Superdex 75, 20 mM sodium phosphate pH 8, 200 μM EDTA, 1 mM NaN3, 1 mL/min, three concordant replicates, ± SD), the “average Mw of the SEC ROI from 13.6 to 14.6 min” value came out at 6460 ± 712 Da. The “total mass of Aβ(1-42) in the fraction collected from 13.6 to 14.6 min” value in data set [2] (50 μL of 1 mg/mL injected, Superdex 75, pH 8) worked out at 28.4 ± 7.13 µg. The “concentration of the collected monomer fraction” value in data set [2] (fraction 13.6–14.6 min) came out at 6.29 µM. Moreover, in data set [2] (fraction 13.6–14.6 min, 50 μL of 1 mg/mL injected), the “recovery in the collected monomer fraction” value is 56.8 % of the injected mass. The nc in data set [3] (fragmentation model, kf constrained) is given as 5.23; in data set [3] (primary nucleation only (Oosawa model), 1.5–6.0 μM, sample 50-5-N-13) it was 2.37; in data set [3] (saturable secondary nucleation, nc = n2 constrained) it was 2.37; in data set [3] (single-step secondary nucleation, nc = n2 constrained), 1.68. The “K2 (effective Michaelis constant for secondary nucleation)” value in data set [3] (saturable secondary nucleation) is recorded as 2.74 µM. Further, the results for the n2 in data set [3] (saturable secondary nucleation) and in data set [3] (single-step secondary nucleation) were 2.37 and 1.68, respectively.

These data come from PMC9817077, “Simple, Reliable Protocol for High-Yield Solubilization of Seedless Amyloid-β Monomer” (ACS Chemical Neuroscience, 2022).
